Assays:
Assay in all cases: KinaseProfiler kinase profiling
Type in all cases: biochemical
Conditions in all cases: 10 μM, ATP near Km
[1] = target: T1, Met (Homo sapiens, UniProt P08581)
T1 construct: purchased Millipore, Inc. (KinaseProfiler service)
Method in brief: (§1)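 Duplicate single-point measurements (10 μM compound) were performed with near-Km ATP for every kinase in the panel. The reported number is the two-replicate mean, expressed as percent of control.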

[2] = target: T2, ROCK-I (Homo sapiens, UniProt Q13464)
T2 construct: purchased Millipore, Inc. (KinaseProfiler service)
Method in brief: as §1

[3] = target: T3, LIMK1 (Homo sapiens, UniProt P53667)
T3 construct: purchased Millipore, Inc. (KinaseProfiler service)
Method in brief: as §1

[4] = target: T4, PDGFRbeta (Homo sapiens, UniProt P09619)
T4 construct: purchased Millipore, Inc. (KinaseProfiler service)
Method in brief: as §1

[5] = target: T5, Haspin (Homo sapiens, UniProt Q8TF76)
T5 construct: purchased Millipore, Inc. (KinaseProfiler service)
Method in brief: as §1

[6] = target: T6, Fes (Homo sapiens, UniProt P07332)
T6 construct: purchased Millipore, Inc. (KinaseProfiler service)
Method in brief: as §1

[7] = target: T7, PKCgamma (Homo sapiens, UniProt P05129)
T7 construct: purchased Millipore, Inc. (KinaseProfiler service)
Method in brief: as §1

[8] = target: T8, PTK6 (Homo sapiens, UniProt Q13882)
T8 construct: purchased Millipore, Inc. (KinaseProfiler service)
Method in brief: as §1

[9] = target: T9, AKT2 (Homo sapiens, UniProt P31751)
T9 construct: purchased Millipore, Inc. (KinaseProfiler service)
Method in brief: as §1

[10] = target: T10, ERK2 (Homo sapiens, UniProt P28482)
T10 construct: purchased Millipore, Inc. (KinaseProfiler service)
Method in brief: as §1

[11] = target: T11, CAMK2d (Homo sapiens, UniProt Q13557)
T11 construct: purchased Millipore, Inc. (KinaseProfiler service)
Method in brief: as §1

[12] = target: T12, JNK3 (Homo sapiens, UniProt P53779)
T12 construct: purchased Millipore, Inc. (KinaseProfiler service)
Method in brief: as §1

[13] = target: T13, Ret (Homo sapiens, UniProt P07949)
T13 construct: purchased Millipore, Inc. (KinaseProfiler service)
Method in brief: as §1

[14] = target: T14, NEK7 (Homo sapiens, UniProt Q8TDX7)
T14 construct: purchased Millipore, Inc. (KinaseProfiler service)
Method in brief: as §1

[15] = target: T15, BTK (Homo sapiens, UniProt Q06187)
T15 construct: purchased Millipore, Inc. (KinaseProfiler service)
Method in brief: as §1

[16] = target: T16, FGFR2 (Homo sapiens, UniProt P21802)
T16 construct: purchased Millipore, Inc. (KinaseProfiler service)
Method in brief: as §1

[17] = target: T17, MKNK2 (Homo sapiens, UniProt Q9HBH9)
T17 construct: purchased Millipore, Inc. (KinaseProfiler service)
Method in brief: as §1

[18] = target: T18, PAK6 (Homo sapiens, UniProt Q9NQU5)
T18 construct: purchased Millipore, Inc. (KinaseProfiler service)
Method in brief: as §1

[19] = target: T19, MKK7 (Homo sapiens, UniProt O14733)
T19 construct: purchased Millipore, Inc. (KinaseProfiler service)
Method in brief: as §1

[20] = target: T20, VRK2 (Homo sapiens, UniProt Q86Y07)
T20 construct: purchased Millipore, Inc. (KinaseProfiler service)
Method in brief: as §1

[21] = target: T21, IRR (Homo sapiens, UniProt P14616)
T21 construct: purchased Millipore, Inc. (KinaseProfiler service)
Method in brief: as §1

[22] = target: T22, GSK3alpha (Homo sapiens, UniProt P49840)
T22 construct: purchased Millipore, Inc. (KinaseProfiler service)
Method in brief: as §1

[23] = target: T23, NEK6 (Homo sapiens, UniProt Q9HC98)
T23 construct: purchased Millipore, Inc. (KinaseProfiler service)
Method in brief: as §1

[24] = target: T24, PRKG1beta (Homo sapiens, UniProt Q13976)
T24 construct: purchased Millipore, Inc. (KinaseProfiler service)
Method in brief: as §1

[25] = target: T25, MSSK1 (Homo sapiens, UniProt Q9UPE1)
T25 construct: purchased Millipore, Inc. (KinaseProfiler service)
Method in brief: as §1

[26] = target: T26, ITK (Homo sapiens, UniProt Q08881)
T26 construct: purchased Millipore, Inc. (KinaseProfiler service)
Method in brief: as §1

[27] = target: T27, PKCtheta (Homo sapiens, UniProt Q04759)
T27 construct: purchased Millipore, Inc. (KinaseProfiler service)
Method in brief: as §1

[28] = target: T28, EphA3 (Homo sapiens, UniProt P29320)
T28 construct: purchased Millipore, Inc. (KinaseProfiler service)
Method in brief: as §1

[29] = target: T29, Syk (Homo sapiens, UniProt P43405)
T29 construct: purchased Millipore, Inc. (KinaseProfiler service)
Method in brief: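 10 μM cpd, duplicate, [ATP] ≈ Km per kinase. Output = POC, mean of n=2.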

[30] = target: T30, IR (Homo sapiens, UniProt P06213)
T30 construct: purchased Millipore, Inc. (KinaseProfiler service)
Method in brief: as §1

[31] = target: T31, CDK2/cyclinE (Homo sapiens, UniProt P24941)
T31 construct: purchased Millipore, Inc. (KinaseProfiler service)
Method in brief: as §1

[32] = target: T32, PKCbetaI (Homo sapiens, UniProt P05771)
T32 construct: purchased Millipore, Inc. (KinaseProfiler service)
Method in brief: as §1

[33] = target: T33, CAMK2b (Homo sapiens, UniProt Q13554)
T33 construct: purchased Millipore, Inc. (KinaseProfiler service)
Method in brief: as §1

[34] = target: T34, PRK2 (Homo sapiens, UniProt Q16513)
T34 construct: purchased Millipore, Inc. (KinaseProfiler service)
Method in brief: as §1

[35] = target: T35, CAMK2g (Homo sapiens, UniProt Q13555)
T35 construct: purchased Millipore, Inc. (KinaseProfiler service)
Method in brief: as §1

[36] = target: T36, SRPK1 (Homo sapiens, UniProt Q96SB4)
T36 construct: purchased Millipore, Inc. (KinaseProfiler service)
Method in brief: as §1

[37] = target: T37, CDK3/cyclinE (Homo sapiens, UniProt Q00526)
T37 construct: purchased Millipore, Inc. (KinaseProfiler service)
Method in brief: as §1

[38] = target: T38, SGK2 (Homo sapiens, UniProt Q9HBY8)
T38 construct: purchased Millipore, Inc. (KinaseProfiler service)
Method in brief: as §1

[39] = target: T39, GSK3beta (Homo sapiens, UniProt P49841)
T39 construct: purchased Millipore, Inc. (KinaseProfiler service)
Method in brief: as §1

[40] = target: T40, Abl-P (Homo sapiens, UniProt P00519)
T40 construct: purchased Millipore, Inc. (KinaseProfiler service)
Method in brief: as §1

[41] = target: T41, Flt4 (Homo sapiens, UniProt P35916)
T41 construct: purchased Millipore, Inc. (KinaseProfiler service)
Method in brief: as §1

T25 sequence (Q9UPE1 whole entry): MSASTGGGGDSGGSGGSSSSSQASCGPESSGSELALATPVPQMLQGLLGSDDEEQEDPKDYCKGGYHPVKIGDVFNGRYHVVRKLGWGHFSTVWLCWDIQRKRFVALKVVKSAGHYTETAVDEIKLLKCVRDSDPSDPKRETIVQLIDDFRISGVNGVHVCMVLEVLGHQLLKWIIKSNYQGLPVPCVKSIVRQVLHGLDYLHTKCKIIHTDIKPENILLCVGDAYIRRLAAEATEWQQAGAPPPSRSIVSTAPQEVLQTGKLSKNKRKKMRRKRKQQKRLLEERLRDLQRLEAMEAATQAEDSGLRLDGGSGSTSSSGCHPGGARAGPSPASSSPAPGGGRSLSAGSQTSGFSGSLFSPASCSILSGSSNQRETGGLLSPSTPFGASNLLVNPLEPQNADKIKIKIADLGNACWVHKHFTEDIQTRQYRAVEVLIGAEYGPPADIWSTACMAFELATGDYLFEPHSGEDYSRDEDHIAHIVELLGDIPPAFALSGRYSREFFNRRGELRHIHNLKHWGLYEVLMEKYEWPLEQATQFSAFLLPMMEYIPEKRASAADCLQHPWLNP
T17 sequence (Q9HBH9 whole entry): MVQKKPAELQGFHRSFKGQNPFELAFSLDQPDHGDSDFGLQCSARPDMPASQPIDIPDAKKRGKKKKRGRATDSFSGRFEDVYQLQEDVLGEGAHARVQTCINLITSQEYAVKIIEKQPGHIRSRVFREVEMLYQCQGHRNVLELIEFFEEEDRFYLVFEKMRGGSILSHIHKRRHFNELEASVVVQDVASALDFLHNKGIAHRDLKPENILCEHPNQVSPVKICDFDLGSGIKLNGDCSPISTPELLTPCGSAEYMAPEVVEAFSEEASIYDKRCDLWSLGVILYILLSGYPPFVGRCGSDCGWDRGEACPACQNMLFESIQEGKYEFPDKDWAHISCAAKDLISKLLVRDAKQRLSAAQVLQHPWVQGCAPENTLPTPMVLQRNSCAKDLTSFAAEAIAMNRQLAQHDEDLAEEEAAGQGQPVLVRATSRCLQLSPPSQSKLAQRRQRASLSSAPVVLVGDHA
T15 sequence (Q06187 whole entry): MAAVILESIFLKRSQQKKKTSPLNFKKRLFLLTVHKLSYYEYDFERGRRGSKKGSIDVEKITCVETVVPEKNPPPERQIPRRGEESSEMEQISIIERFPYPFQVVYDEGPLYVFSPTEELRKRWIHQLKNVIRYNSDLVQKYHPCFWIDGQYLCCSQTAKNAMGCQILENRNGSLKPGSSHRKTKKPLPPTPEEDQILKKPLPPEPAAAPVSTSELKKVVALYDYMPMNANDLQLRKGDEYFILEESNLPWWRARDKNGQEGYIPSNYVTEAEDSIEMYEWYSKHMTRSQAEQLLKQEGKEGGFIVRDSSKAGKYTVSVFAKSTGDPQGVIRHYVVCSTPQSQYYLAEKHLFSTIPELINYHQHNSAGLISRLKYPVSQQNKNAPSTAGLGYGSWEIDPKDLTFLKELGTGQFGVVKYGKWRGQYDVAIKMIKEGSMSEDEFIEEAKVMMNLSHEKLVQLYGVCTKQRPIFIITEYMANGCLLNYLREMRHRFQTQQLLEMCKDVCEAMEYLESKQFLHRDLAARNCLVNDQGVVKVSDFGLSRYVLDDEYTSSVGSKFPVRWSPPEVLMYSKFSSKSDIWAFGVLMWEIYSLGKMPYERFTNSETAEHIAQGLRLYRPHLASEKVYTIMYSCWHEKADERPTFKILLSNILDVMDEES
T32 sequence (P05771 whole entry): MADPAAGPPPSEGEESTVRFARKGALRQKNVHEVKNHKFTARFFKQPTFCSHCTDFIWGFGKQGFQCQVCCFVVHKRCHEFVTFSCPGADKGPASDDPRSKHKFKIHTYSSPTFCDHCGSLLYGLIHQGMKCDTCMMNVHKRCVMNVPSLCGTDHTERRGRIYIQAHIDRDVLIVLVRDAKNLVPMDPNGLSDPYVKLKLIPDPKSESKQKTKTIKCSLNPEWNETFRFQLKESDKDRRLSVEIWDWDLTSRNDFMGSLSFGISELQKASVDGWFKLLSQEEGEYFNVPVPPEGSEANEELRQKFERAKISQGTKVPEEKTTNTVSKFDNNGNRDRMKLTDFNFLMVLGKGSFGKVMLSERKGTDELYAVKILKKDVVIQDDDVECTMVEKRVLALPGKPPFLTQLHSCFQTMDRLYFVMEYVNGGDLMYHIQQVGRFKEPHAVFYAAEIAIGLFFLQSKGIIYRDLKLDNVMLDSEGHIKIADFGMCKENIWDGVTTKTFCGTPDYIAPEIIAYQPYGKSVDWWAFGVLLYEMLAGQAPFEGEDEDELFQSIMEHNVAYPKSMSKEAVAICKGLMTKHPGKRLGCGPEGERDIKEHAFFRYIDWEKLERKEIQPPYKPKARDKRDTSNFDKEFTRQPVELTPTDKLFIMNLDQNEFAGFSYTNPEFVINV
T5 sequence (Q8TF76 whole entry): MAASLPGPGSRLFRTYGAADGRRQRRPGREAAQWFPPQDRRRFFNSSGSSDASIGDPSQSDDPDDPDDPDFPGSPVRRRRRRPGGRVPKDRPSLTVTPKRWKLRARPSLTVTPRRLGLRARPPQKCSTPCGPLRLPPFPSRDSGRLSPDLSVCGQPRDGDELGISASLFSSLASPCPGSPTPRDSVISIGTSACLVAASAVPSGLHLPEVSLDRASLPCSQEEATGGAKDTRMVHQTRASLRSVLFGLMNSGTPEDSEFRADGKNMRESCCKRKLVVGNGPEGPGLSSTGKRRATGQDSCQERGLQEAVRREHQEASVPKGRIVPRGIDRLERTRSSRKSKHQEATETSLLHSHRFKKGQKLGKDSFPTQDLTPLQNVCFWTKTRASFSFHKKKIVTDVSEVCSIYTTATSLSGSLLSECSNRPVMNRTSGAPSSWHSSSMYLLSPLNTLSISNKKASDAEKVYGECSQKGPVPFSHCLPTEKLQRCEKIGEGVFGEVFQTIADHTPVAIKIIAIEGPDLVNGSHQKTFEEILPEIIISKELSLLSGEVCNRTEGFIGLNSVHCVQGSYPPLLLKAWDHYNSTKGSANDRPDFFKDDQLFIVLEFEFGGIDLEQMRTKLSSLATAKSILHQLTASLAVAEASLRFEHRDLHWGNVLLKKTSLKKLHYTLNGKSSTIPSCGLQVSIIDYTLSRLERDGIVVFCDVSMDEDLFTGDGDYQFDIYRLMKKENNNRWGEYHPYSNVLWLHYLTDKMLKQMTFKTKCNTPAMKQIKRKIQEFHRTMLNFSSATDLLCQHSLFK
T40 sequence (P00519 27-1130 limits assumed): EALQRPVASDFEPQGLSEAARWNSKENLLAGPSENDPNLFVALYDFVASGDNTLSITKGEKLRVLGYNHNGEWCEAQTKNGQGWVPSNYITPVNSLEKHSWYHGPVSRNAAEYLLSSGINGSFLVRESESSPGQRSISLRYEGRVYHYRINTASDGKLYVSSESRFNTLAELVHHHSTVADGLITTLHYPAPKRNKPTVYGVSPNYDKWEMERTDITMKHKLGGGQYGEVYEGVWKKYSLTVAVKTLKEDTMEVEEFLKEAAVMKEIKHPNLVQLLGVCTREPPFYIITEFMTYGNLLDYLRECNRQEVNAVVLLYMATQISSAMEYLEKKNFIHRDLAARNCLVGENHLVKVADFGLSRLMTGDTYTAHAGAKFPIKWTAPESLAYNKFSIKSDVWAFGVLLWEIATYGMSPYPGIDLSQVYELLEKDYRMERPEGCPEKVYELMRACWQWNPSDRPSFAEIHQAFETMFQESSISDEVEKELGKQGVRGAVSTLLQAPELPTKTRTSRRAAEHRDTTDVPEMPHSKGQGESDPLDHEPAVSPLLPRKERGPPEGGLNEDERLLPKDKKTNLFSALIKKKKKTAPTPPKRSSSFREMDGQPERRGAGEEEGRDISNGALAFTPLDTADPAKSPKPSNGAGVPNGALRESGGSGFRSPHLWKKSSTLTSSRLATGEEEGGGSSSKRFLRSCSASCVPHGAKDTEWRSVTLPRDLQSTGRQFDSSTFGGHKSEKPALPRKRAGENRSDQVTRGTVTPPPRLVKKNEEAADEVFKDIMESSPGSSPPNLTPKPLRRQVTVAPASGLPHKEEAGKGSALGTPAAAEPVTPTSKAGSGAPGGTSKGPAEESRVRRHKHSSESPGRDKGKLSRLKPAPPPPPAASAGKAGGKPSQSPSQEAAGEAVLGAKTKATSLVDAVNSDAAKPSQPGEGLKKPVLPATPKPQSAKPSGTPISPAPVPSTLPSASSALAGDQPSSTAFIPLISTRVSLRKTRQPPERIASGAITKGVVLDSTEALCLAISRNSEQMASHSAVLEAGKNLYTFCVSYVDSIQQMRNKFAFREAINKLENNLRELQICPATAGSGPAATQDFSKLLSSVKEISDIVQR

COCCN1C[C@@H](NC(=O)Nc2c(C)c(-c3cnc(C)nc3)nn2-c2ccccc2)[C@H](c2cccc(F)c2)C1 [Compound 1, 1-((3S,4R)-4-(3-fluorophenyl)-1-(2-methoxyethyl)pyrrolidin-3-yl)-3-(4-methyl-3-(2-methylpyrimidin-5-yl)-1-phenyl-1H-pyrazol-5-yl)urea]
Avg POC [1]: 124.5 POC | Avg POC [2]: 98.5 POC | Avg POC [3]: 98 POC | Avg POC [4]: 96 POC | Avg POC [5]: 96.5 POC | Avg POC [6]: 102.5 POC | Avg POC [7]: 98 POC | Avg POC [8]: 106 POC | Avg POC [9]: 104.5 POC | Avg POC [10]: 100 POC | Avg POC [11]: 97.5 POC | Avg POC [12]: 114.5 POC | Avg POC [13]: 111.5 POC | Avg POC [14]: 104 POC | Avg POC [15]: 114 POC | Avg POC [16]: 99 POC | Avg POC [17]: 111 POC | Avg POC [18]: 114.5 POC | Avg POC [19]: 125 POC | Avg POC [20]: 96 POC | Avg POC [21]: 104.5 POC | Avg POC [22]: 109.5 POC | Avg POC [23]: 96 POC | Avg POC [24]: 95.5 POC | Avg POC [25]: 127.5 POC | Avg POC [26]: 104 POC | Avg POC [27]: 128.5 POC | Avg POC [28]: 95.5 POC | Avg POC [29]: 95.5 POC | Avg POC [30]: 84.5 POC | Avg POC [31]: 102 POC | Avg POC [32]: 102.5 POC | Avg POC [33]: 147.5 POC | Avg POC [34]: 116 POC | Avg POC [35]: 97 POC | Avg POC [36]: 96 POC | Avg POC [37]: 94.5 POC | Avg POC [38]: 112 POC | Avg POC [39]: 112 POC | Avg POC [40]: 110.5 POC | Avg POC [41]: 98.5 POC
